Test results: PubChem BioAssay AID328 (DTP/NCI, 2004)
Several values for one entry are separate records, joined by “and”; a condition that tells them apart may be missing. Identical values can stand only once. Toxic doses and inconclusive results are not listed. Residues, ends and D or L forms follow the SMILES beside them. *: point of attachment. Cbz = O=C(OCc1ccccc1)*; Bn = c1ccc(C*)cc1

Tested on: BDF1 mice, P388 leukemia ip, median survival T/C
Test: NCI In Vivo Anticancer Drug Screen. Data for tumor model P388 Leukemia (intraperitoneal) in B6D2F1 (BDF1) mice
Settings: endpoint: median survival time, higher = longer survival
Procedure, shortened: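 Compound-treated tumour-bearing mice were compared with vehicle-treated controls. Survival was recorded, and the value is the treated-group measurement divided by the control-group measurement (T/C).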

[1] = dose: 200.0 mg/kg/injection, schedule: Q01DX009 (ip), vehicle: Klucel (hydroxypropylcellulose) (HPC)
[2] = dose: 50.0 mg/kg/injection, schedule: Q01DX009 (ip), vehicle: Klucel (hydroxypropylcellulose) (HPC)
[3] = dose: 100.0 mg/kg/injection, schedule: Q01DX009 (ip), vehicle: Klucel (hydroxypropylcellulose) (HPC)

## CCOC(=O)CCC(NC(=O)c1ccc(N(C)S(=O)(=O)c2ccc(C)cc2)c(F)c1)C(=O)OCC (stereo not drawn)
dose: 75.0 mg/kg/injection, schedule: Q04DX003 (ip), vehicle: saline
  T/C: 95 % of control
dose: 150.0 mg/kg/injection, schedule: Q04DX003 (ip), vehicle: saline
  T/C: 108 % of control
dose: 300.0 mg/kg/injection, schedule: Q04DX003 (ip), vehicle: saline
  T/C: 100 % of control

## CCC(C)C(NC(=O)CCN)C(=O)O (stereo not drawn)
dose: 50.0 mg/kg/injection, schedule: Q01DX005 (ip), vehicle: saline
  T/C: 104 % of control
dose: 100.0 mg/kg/injection, schedule: Q01DX005 (ip), vehicle: saline
  T/C: 103 % of control
dose: 200.0 mg/kg/injection, schedule: Q01DX005 (ip), vehicle: saline
  T/C: 100 % of control

## O=c1[nH]cnc2c1nnn2C1OC(CO)C(O)C1O (stereo not drawn)
dose: 50.0 mg/kg/injection, schedule: Q01DX006 (ip), vehicle: saline
  T/C: 95 % of control
dose: 130.0 mg/kg/injection, schedule: Q01DX006 (ip), vehicle: saline
  T/C: 117 % of control

## COC1=C(C2(O)C(=O)N(C)c3ccccc32)C(=O)C(OC)=C(C2(O)C(=O)N(C)c3ccccc32)C1=O (stereo not drawn)
dose: 100.0 mg/kg/injection, schedule: Q01DX001 (ip), vehicle: saline with Tween-80
  T/C: 91 % of control
dose: 200.0 mg/kg/injection, schedule: Q01DX001 (ip), vehicle: saline with Tween-80
  T/C: 89 % of control
dose: 400.0 mg/kg/injection, schedule: Q01DX001 (ip), vehicle: saline with Tween-80
  T/C: 90 % of control

## CC(/C=C/C=C/c1ccccc1)=N\O
[1]
  T/C: 90 % of control
dose: 400.0 mg/kg/injection, schedule: Q01DX009 (ip), vehicle: Klucel (hydroxypropylcellulose) (HPC)
  T/C: 95 % of control

## CN(C)CC/C=C1\c2ccccc2Sc2ccc(C(F)(F)F)cc21
dose: 9.2 mg/kg/injection, schedule: Q04DX003 (ip), vehicle: saline
  T/C: 112 % of control and 113 % of control
dose: 21.0 mg/kg/injection, schedule: Q04DX003 (ip), vehicle: saline
  T/C: 116 % of control
dose: 29.0 mg/kg/injection, schedule: Q04DX003 (ip), vehicle: saline
  T/C: 100 % of control
dose: 65.0 mg/kg/injection, schedule: Q01DX001 (ip), vehicle: saline
  T/C: 122 % of control

## O=[N+]([O-])c1cccc2ccc(N/N=C/c3ccccc3O)nc12
dose: 10.0 mg/kg/injection, schedule: Q01DX009 (ip), vehicle: Klucel (hydroxypropylcellulose) (HPC)
  T/C: 96 % of control
dose: 20.0 mg/kg/injection, schedule: Q01DX009 (ip), vehicle: Klucel (hydroxypropylcellulose) (HPC)
  T/C: 122 % of control
dose: 40.0 mg/kg/injection, schedule: Q01DX009 (ip), vehicle: Klucel (hydroxypropylcellulose) (HPC)
  T/C: 111 % of control

## CC(=O)CC(C)=O.CC(=O)CC(C)=O.Cc1nccn1C.O=N[O-].[Co]
dose: 100.0 mg/kg/injection, schedule: Q04DX002 (ip), vehicle: saline with Tween-80
  T/C: 105 % of control

## CC(C)CC(NC(=O)C1CCCN1C(=O)C(CSCc1ccccc1)NC(=O)OCc1ccccc1)C(=O)NCC(N)=O (stereo not drawn) (Cbz-C(Bn)PLG-NH2; configuration not given here)
dose: 100.0 mg/kg/injection, schedule: Q04DX003 (ip), vehicle: Klucel (hydroxypropylcellulose) (HPC)
  T/C: 99 % of control
dose: 200.0 mg/kg/injection, schedule: Q04DX003 (ip), vehicle: Klucel (hydroxypropylcellulose) (HPC)
  T/C: 95 % of control
dose: 400.0 mg/kg/injection, schedule: Q04DX003 (ip), vehicle: Klucel (hydroxypropylcellulose) (HPC)
  T/C: 87 % of control

## Clc1ccc(NC2=NCCN=C(Nc3ccc(Cl)cc3)SS2)cc1
[2]
  T/C: 91 % of control
[3]
  T/C: 91 % of control

## COc1c(C)c(OCC=C(C)C)cc(CO)c1CO
[2]
  T/C: 109 % of control
[3]
  T/C: 109 % of control
[1]
  T/C: 100 % of control

## c1ccc2c(SSc3cccc4ccccc34)cccc2c1
dose: 25.0 mg/kg/injection, schedule: Q04DX003 (ip), vehicle: saline with Tween-80
  T/C: 108 % of control
dose: 50.0 mg/kg/injection, schedule: Q04DX003 (ip), vehicle: saline with Tween-80
  T/C: 108 % of control
dose: 100.0 mg/kg/injection, schedule: Q04DX003 (ip), vehicle: saline with Tween-80
  T/C: 112 % of control
dose: 200.0 mg/kg/injection, schedule: Q04DX003 (ip), vehicle: saline with Tween-80
  T/C: 103 % of control
